Molecular target: T1, PPARδ (Mus musculus, UniProt P35396)
T1 construct: from tissue; host or cells: heart and skeletal muscle (quadriceps) of PPARα knock-out mice
T1 sequence (P35396 1-440): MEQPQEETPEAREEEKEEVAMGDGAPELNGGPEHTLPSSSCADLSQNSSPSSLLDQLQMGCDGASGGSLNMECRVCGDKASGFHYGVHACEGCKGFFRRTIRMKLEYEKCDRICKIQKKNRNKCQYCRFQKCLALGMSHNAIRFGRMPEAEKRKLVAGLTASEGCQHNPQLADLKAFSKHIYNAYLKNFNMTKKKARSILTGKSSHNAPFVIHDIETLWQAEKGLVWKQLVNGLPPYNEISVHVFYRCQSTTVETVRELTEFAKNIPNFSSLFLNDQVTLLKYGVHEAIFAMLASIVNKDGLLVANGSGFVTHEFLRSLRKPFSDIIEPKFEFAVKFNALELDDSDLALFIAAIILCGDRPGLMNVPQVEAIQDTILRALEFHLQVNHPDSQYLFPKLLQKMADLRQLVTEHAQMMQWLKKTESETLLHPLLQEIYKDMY
Assay: In vivo evaluation of PPARδ properties (target gene expression, RT-PCR)
Conditions: PPARα knock-out mouse; 150 mg/kg/day for 3 days
Method: The PPARα knock-out mouse model was used to characterize in vivo PPARδ activation. Animals were treated for 3 days at the dose of 150 mg/kg/day. Total RNA was isolated from heart and skeletal muscle (quadriceps). Messenger RNAs were quantified by quantitative RT-PCR and expression levels were normalized using 18S gene as reference.
The […] knock-out mouse model was used to characterize in vivo PPARδ activation. Animals were treated for 3 days at the dose of 150 mg/kg/day. Total RNA was isolated from heart and skeletal muscle (quadriceps). Messenger RNAs were quantified by quantitative RT-PCR: total RNA was extracted from fragments of skeletal muscle or heart, using the RNeasy® Fibrous Tissue kit (Qiagen), according to the manufacturer's instructions. Reverse transcription was performed on 1 μg of total RNA (quantified using the Ribogreen RNA quantification kit (Molecular Probes)) by action of 1 μl of MMLV-RT enzyme (Sigma) during 1 hour at 37° C. in a total volume of 20 μl. The reaction conditions were 1× buffer (Sigma), 1.5 mM DTT, 0.18 mM dNTPs (Promega), 200 ng pdN6 (Amersham), 30 U RNase inhibitor (Sigma). Quantitative PCR was then carried out using the MyiQ Single-Color Real-Time PCR Detection System (Biorad). Briefly PCR reactions were performed in 96 well plates on 5 μl of diluted reverse transcription mix using the iQ SYBR Green Supermix kit. The reaction conditions were: 25 μl of volume reaction, 3 mM of MgCl2, and 0.5 μl of each reverse and forward primer solutions (10 pMol), Tm of 55° C. The primers pairs are specific for each target genes. […]
The quantity of fluorescence emitted is directly proportional to the quantity of complementary DNA present at the start of the reaction and amplified during the PCR. The relative levels of expression were determined using the standard curve for each transcript. […] The induction factor, i.e. the ratio between the relative signal induced by the compound according to the invention and the average of the values relating to the control group, was then calculated for each sample. […]

- PDK4 expression in the heart: Induction
- UCP2 expression in the skeletal muscle: Induction
- UCP3 expression in the heart: Induction
SMILES: Cc1cc(/C=C/C(=O)c2ccc(Br)cc2)cc(C)c1OC(C)(C)C(=O)O [Compound 41, 1-[4-bromophenyl]-3-[3,5-dimethyl-4-carboxydimethylmethyloxyphenyl]prop-2-en-1-one]

From US7566737B2 (Genfit, priority 2002, dated 2009)
